Patent US5554620A, “Substituted 6,11-ethano-6,11-dihydrobenzo[b] quinolizinium salts and compositions and methods of use thereof” (Sterling Winthrop Inc., priority 1994, dated 1996)

What follows are compounds tested against PCP receptor (assay: [3H]TCP radioreceptor assay (binding to PCP recognition sites)). Conditions: [3H]TCP approx. 1 nM, rat brain membranes; mean of at least two determinations.
Parameters: species or system rat (male Sprague-Dawley, whole brain)
Method: [^3 H]TCP Radioreceptor Assay
[^3 H]TCP binding to PCP recognition sites was performed as described by Vignon et al. Brain Research 1983, 280, 194-197. Male Sprague-Dawley rats were sacrificed by decapitation, and whole brains were homogenized in 10 volumes (wt/vol) of cold Tris-HCl buffer (50 mM, pH 7.7) using a Brinkmann Polytron (setting 6, 30 sec). The homogenate was centrifuged at 40,000×g for 10 min at 4° C. The supernatant was decanted, and the homogenization and centrifugation steps were repeated twice as described above. Following this, the pellet was resuspended in Tris-HCl (5 mM, pH 7.7) at a tissue concentration of 0.5-0.75 g/mL, and one mL aliquots were frozen at -70° C. until use. The binding characteristics for PCP recognition sites were not altered by the freezing of membrane suspensions.
On the day of the assay, membrane aliquots were thawed, resuspended in fresh 5 mM Tris-HCl buffer at a tissue concentration of 1 mg/mL, and stored on ice until use. Each assay tube contained 100 μl of [^3 H]TCP at a final concentration of approximately 1 nM, 100 μL of various concentrations of the compounds of interest, 500 μL of the tissue suspension and 300 μL of buffer to a final assay volume of 1 mL and a final protein concentration of 0.5 mg/tube. Non-specific binding was defined by addition of a final concentration of 100 μM PCP to blank tubes. All tubes were incubated at room temperature for 25 min before termination of the reaction by rapid filtration over Whatman GF/B glass fiber filters that had been presoaked in a solution of 0.5% polyethylenimine for at least 1 hr prior to use. Filters were washed with three 4 mL volumes of cold Tris buffer. Following addition of scintillation cocktail, the amount of bound radioactivity was determined by liquid scintillation spectrometry using a Beckman LS 5000TA liquid scintillation counter with an efficiency for tritium of approximately 55%. Inhibition constants (Ki values) were calculated using the EBDA/LIGAND program (McPherson, J. Pharmacol. Meth. 1985, 14, 213-228), purchased from ElsevierBiosoft, Inc. Results are reported as the Ki values (in nM) which are expressed as the mean of at least two separate determinations; or as a percent (%) inhibition of binding at 10 μM.

SMILES | Ki
CCCCCCCCOc1cccc2c1C1c3cccc[n+]3C2CC1(c1ccoc1)c1ccoc1.[O-][Cl+3]([O-])([O-])[O-] (centres unmarked) [Example 172, 6,11-ethano-12,12-di(3-furyl)-10-octyloxy-6,11-dihydrobenzo[b]quinolizinium perchlorate] | 3380 nM
COc1cccc2c1C1c3cccc[n+]3C2CC1(c1cc[nH]n1)c1cc[nH]n1 (centres unmarked) [179(b), 6,11-ethano-12,12-di(pyrazolyl-3-yl]-10-methoxy-6,11-dihydrobenzo[b]quinolizinium chloride] | 259 nM
OCc1cccc2c1C1c3cccc[n+]3C2CC1(c1ccoc1)c1ccoc1.[O-][Cl+3]([O-])([O-])[O-] (centres unmarked) [182(e), 6,11-ethano-12,12-di(3-furyl)-10-hydroxymethyl-6,11-dihydrobenzo[b]quinolizinium perchlorate] | 159 nM
COc1cccc2c1C1c3cccc[n+]3C2CC1(c1ccccc1)c1ccccc1 (centres unmarked) [Example 26, 6,11-ethano-12,12-diphenyl-10-methoxy-6,11-dihydrobenzo[b]quinolizinium chloride] | 32.7 nM
COc1c(Cl)ccc2c1C1c3cccc[n+]3C2CC1(c1ccoc1)c1ccoc1 (centres unmarked) [187(g), 6,11-ethano-12,12-di(3-furyl)-9-chloro-10-methoxy-6,11-dihydrobenzo[b]quinolizinium chloride] | 63.7 nM
Cc1ccc(S(=O)(=O)n2nccc2C2(c3ccoc3)CC3c4ccccc4C2c2cccc[n+]23)cc1 (single isomer, unassigned) [Example 184(c), 6,11-ethano-12-(3-furyl)-12-[1-(p-toluenesulfonyl)pyrazol-5-yl]-6,11-dihydrobenzo[b]quinolizinium bromide] | 12900 nM
CC1C2c3ccccc3C(c3cccc[n+]32)C1(c1ccccc1)c1ccccc1 (centres unmarked) [Example 18, 6,11-ethanol-12,12-diphenyl-13-methyl-6,11-dihydrobenzo[b]quinolizinium perchlorate] | 19.5 nM
c1ccc2c(c1)C1C3CCc4occc4C3(c3ccoc3)C2c2cccc[n+]21 (centres unmarked) [7(c), 6,11-[5',4"]-4'-(3-furyl)-4',5',6',7'-tetrahydrobenzofuryl]-6,11-dihydrobenzo[b]quinolizinium chloride] | 1.1 nM
CC(=O)Oc1ccc[n+]2c1C1c3ccccc3C2CC1(c1ccoc1)c1ccoc1 (centres unmarked) [Example 170, 6,11-ethano-12,12-di(3-furyl)-1-acetyloxy-6,11-dihydrobenzo-[b]quinolizinium chloride] | 232 nM
Oc1cccc2c1C1c3cccc[n+]3C2CC1(c1ccoc1)c1ccn[nH]1 (centres unmarked) [Example 200, 6,11-ethano-12-(3-furyl)-12-(pyrazol-5-yl)-10-hydroxy-6,11-dihydro-benzo[b]quinolizinium chloride] | 11.5 nM
Brc1cc2cn[nH]c2c2cc3cccc[n+]3cc12 [186(g), 7-bromo-9,10-pyrazolo-benzo[b]quinolizinium hexafluorophosphate] | 122 nM
c1ccc2c(c1)C1C3CCc4occc4C3(c3ccoc3)C2c2cccc[n+]21 (single isomer, unassigned) [69(c), 6,11[[5',4']-4'-(3-furyl)-4,5,6,7-tetrahydrobenzofuryl]-6,11-dihydrobenzo[b]quinolizinium perchlorate] | 0.9 nM
COc1cccc2c1CC1C3c4ccccc4C(c4cccc[n+]43)C21c1ccccc1 (centres unmarked) [4(E), 6,11[[2',3']-3'-phenyl-7'-methoxy-indanyl]16,11-dihydrobenzo[b]quinolizinium hexafluoro-phosphate] | 5870 nM
CCCCC12CC(c3ccccc3)(c3ccccc3)C(c3ccccc31)c1cccc[n+]12.[O-][Cl+3]([O-])([O-])[O-] (centres unmarked) [59(c), 6,11-ethano-12,12-diphenyl-6-butyl-6,11-dihydrobenzo[b]quinolizinium perchlorate] | 3910 nM
c1ccc2c(c1)C1CC(c3cc[nH]c3)(c3cc[nH]c3)C2c2cccc[n+]21 (centres unmarked) [71(F), 6,11-ethano-12,12-di(3-pyrrolyl)-6,11-dihydrobenzo[b]quinolizinium chloride] | 3.1 nM
c1ccc(C23c4ccccc4CC2C2c4ccccc4C3c3cccc[n+]32)cc1 (centres unmarked) [Example 1F, 6,11[[2',3']-3'-phenyl-indanyl]6,11-dihydrobenzo[b]quinolizinium hexafluorophosphate] | 7.58 nM

SMILES | Ki
Oc1ccc2[n+](c1)C1CC(c3ccoc3)(c3ccoc3)C2c2ccccc21 (centres unmarked) [Example 191(f), 12,12-di(3-furyl)-3-hydroxy-6,11-ethano-6,11-dihydrobenzo[b]quinolizinium chloride] | 1530 nM
c1ccc2c(c1)C1C3CCc4occc4C3(c3cc4ccccc4o3)C2c2cccc[n+]21 (centres unmarked) [10(c-k), 6,11[[5',4']-4'-(2-benzofuryl)-4',5',6',7'-tetrahydro-benzofuryl]6,11-dihydrobenzo[b]quinolizinium hexafluorophosphate] | 696 nM
c1ccc2c(c1)C1C3CCc4occc4C3(c3cc4ccccc4o3)C2c2cccc[n+]21 (centres unmarked) [10(c-G), 6,11[[5',4']-4'-(2-benzofuryl)-4',5',6',7'-tetrahydrobenzofuryl]6,11-dihydrobenzo[b]quinolizinium hexafluorophosphate] | 4450 nM
COc1cccc(C23c4ccccc4CC2C2c4ccccc4C3c3cccc[n+]32)c1 (centres unmarked) [5(c), 6.11[[2',3']-3'-(3-methoxyphenyl)-indanyl]6,11-dihydrobenzo[b]quinolizinium hexafluorophosphate] | 13.3 nM
Clc1ccc2c(c1)C1c3cccc[n+]3C2CC1(c1ccn[nH]1)c1ccn[nH]1 (centres unmarked) [189(b), 6,11-ethano-12,12-di-(pyrazol-5-yl)]-9-chloro-6,11-dihydrobenzo[b]quinolizinium perchlorate] | 22.5 nM
Oc1ccc[n+]2c1C1c3ccccc3C2CC1(c1ccoc1)c1ccoc1 (centres unmarked) [Example 168(c), 6,11-ethano-12,12-di(3-furyl)-1-hydroxy-6,11-dihydrobenzo[b]quinolizinium chloride] | 306 nM
FC(F)(F)c1ccc2c(c1)C1c3cccc[n+]3C2CC1(c1ccccc1)c1ccccc1 (centres unmarked) [45(E), 6,11-ethano-12,12-diphenyl-9-trifluoromethyl-6,11-dihydrobenzo[b]quinolizinium chloride 1/4 hydrate] | 491 nM
C=C1C2c3ccccc3C(c3cccc[n+]32)C1(c1ccoc1)c1ccoc1 (centres unmarked) [162(d), 6,11-ethano-12,12-di(3-furyl)-13-methylene-6,11-dihydrobenzo[b]quinolizinium hexafluorophosphate] | 2.31 nM
CCOC1(c2ccoc2)C2c3ccccc3C(C1C)[n+]1ccccc12 (single isomer, unassigned) [65(c), 6,11-ethano-12-(3-furyl)-12-ethoxy-13-methyl-6,11-dihydrobenzo[b]quinolizinium hexafluorophosphate] | 2.8 nM
c1ccc2c(c1)C1C3CCc4sccc4C3(c3ccoc3)C2c2cccc[n+]21 (centres unmarked) [15(c), 6,11[[5',4']-4'-(3-furyl)-4',5',6',7'-tetrahydrothianaphthyl]6,11]-dihydrobenzo[b]quinolizinium hexafluorophosphate] | 1.4 nM
COc1cccc2c1C1c3cccc[n+]3C2CC1(c1ccoc1)c1ccoc1 (centres unmarked) [66(g), 6,11-ethano-12,12-di(3-furanyl)-10-methoxy-6,11-dihydrobenzo[b]quinolizinium chloride] | 6 nM
CCCCCCCC(=O)Oc1cccc2c1C1c3cccc[n+]3C2CC1(c1ccoc1)c1ccoc1 (centres unmarked) [Example 165, 6,11-ethano-12,12-di(3-furyl)-10-octanoyloxy-6,11-dihydrobenzo[b]quinolizinium chloride] | 31.3 nM
COc1cccc2c1C1c3cccc[n+]3C2(C)CC1(c1ccccc1)c1ccccc1 (centres unmarked) [37(E), 6,11-ethano-12,12-diphenyl-10-methoxy-6-methyl-6,11-dihydrobenzo[b]quinolizinium chloride] | 36.7 nM
CCOC(=O)CCC(=O)Oc1cccc2c1C1c3cccc[n+]3C2CC1(c1ccoc1)c1ccoc1 (centres unmarked) [Example 166, 6,11-ethano-12,12-di(3-furyl)-10-(3-ethoxycarbonyl)propionyloxy-6,11-dihydrobenzo-[b]quinolizinium chloride] | 61.1 nM
c1ccc2c(c1)C1CC(c3cnn[nH]3)(c3cnn[nH]3)C2c2cccc[n+]21 (centres unmarked) [70(F), 6,11-ethano-12.12-di-(5-1,2,3-triazoyl)6,11-dihydrobenzo[b]quinolizinium Chloride] | 3830 nM

Same assay, conditions: inhibition of [3H]TCP binding at 10 μM

SMILES | [3H]TCP percent inhibition @ 10 μm
Cc1ccc(S(=O)(=O)n2nccc2C2(c3ccoc3)CC3c4cccc(O)c4C2c2cccc[n+]23)cc1 (single isomer, unassigned) [Example 199(a), 6,11-ethano-12-(3-furyl)-12-[1-(p-toluenesulfon-yl)-pyrazol-5-yl]-10-hydroxy-6,11-dihydrobenzo[b]quinolizinium perchlorate] | 27%
